According to ChEMBL document CHEMBL1201862, “PubChem BioAssay data set” (2004):
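These data come from cells grown in 96-well plates and exposed to compound for 48 hours at five concentrations. Here, GI50 denotes the concentration required for 50% inhibition of growth.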 Active and inactive are the calls of the source. Rule as the data show it: active = GI50 up to about 1.1 µM and inactive = higher.

What was measured:
Assay in all cases: inhibition of tumour cell growth, NCI panel, 48 h
[1] = tested on: Malme-3M
[2] = tested on: SK-OV-3
[3] = tested on: HOP-92
[4] = tested on: HCT-15
[5] = tested on: MDA-N
[6] = tested on: OVCAR-3
[7] = tested on: SNB-19
[8] = tested on: UACC-257
[9] = tested on: A498
[10] = tested on: K562
[11] = tested on: ACHN
[12] = tested on: CCRF-CEM
[13] = tested on: EKVX
[14] = tested on: MDA-MB-231
[15] = tested on: 786-0
[16] = tested on: HCC 2998
[17] = tested on: IGROV-1
[18] = tested on: SR
[19] = tested on: COLO 205
[20] = tested on: Hs-578T
[21] = tested on: HCT-116
[22] = tested on: HT-29
[23] = tested on: BT-549
[24] = tested on: NCI-H522
[25] = tested on: UACC-62
[26] = tested on: OVCAR-4
[27] = tested on: NCI-H226
[28] = tested on: MCF7
[29] = tested on: MDA-MB-435
[30] = tested on: KM12
[31] = tested on: SNB-75
[32] = tested on: SF-268
[33] = tested on: SK-MEL-5
[34] = tested on: RPMI-8226
[35] = tested on: OVCAR-5
[36] = tested on: NCI-H23
[37] = tested on: PC-3
[38] = tested on: NCI/ADR-RES
[39] = tested on: SN12C
[40] = tested on: LOX IMVI
[41] = tested on: UO-31
[42] = tested on: HOP-62
[43] = tested on: SF-295
[44] = tested on: M14
[45] = tested on: SK-MEL-2
[46] = tested on: U-251
[47] = tested on: DU-145
[48] = tested on: MOLT-4
[49] = tested on: SW-620
[50] = tested on: RXF 393
[51] = tested on: A549
[52] = tested on: NCI-H460
[53] = tested on: SK-MEL-28
[54] = tested on: T47D
[55] = tested on: CAKI-1
[56] = tested on: OVCAR-8
[57] = tested on: TK-10
[58] = tested on: SF-539

Compound: c1ccc2cc(CNCCCCNCCCNCc3ccc4ccccc4c3)ccc2c1
- GI50 [1]: 1710 nM (inactive)
- GI50 [2]: 1760 nM (inactive)
- GI50 [3]: 1560 nM (inactive)
- GI50 [4]: 824 nM
- GI50 [5]: 993 nM (active)
- GI50 [6]: 1600 nM (inactive)
- GI50 [7]: 1430 nM (inactive)
- GI50 [8]: 1880 nM (inactive)
- GI50 [9]: 1990 nM (inactive)
- GI50 [10]: 259 nM (active)
- GI50 [11]: 1420 nM (inactive)
- GI50 [12]: 351 nM (active)
- GI50 [13]: 1570 nM (inactive)
- GI50 [14]: 1820 nM (inactive)
- GI50 [15]: 423 nM (active)
- GI50 [16]: 480 nM (active)
- GI50 [17]: 585 nM (active)
- GI50 [18]: 351 nM (active)
- GI50 [19]: 277 nM (active)
- GI50 [20]: 167 nM (active)
- GI50 [21]: 300 nM (active)
- GI50 [22]: 229 nM (active)
- GI50 [23]: 1780 nM (inactive)
- GI50 [24]: 1140 nM (inactive)
- GI50 [25]: 1750 nM (inactive)
- GI50 [26]: 1600 nM (inactive)
- GI50 [27]: 1170 nM (inactive)
- GI50 [28]: 548 nM (active)
- GI50 [29]: 1450 nM (inactive)
- GI50 [30]: 403 nM (active)
- GI50 [31]: 1500 nM (inactive)
- GI50 [32]: 1410 nM (inactive)
- GI50 [33]: 2400 nM (inactive)
- GI50 [34]: 226 nM (active)
- GI50 [35]: 1870 nM (inactive)
- GI50 [36]: 1800 nM (inactive)
- GI50 [37]: 1630 nM (inactive)
- GI50 [38]: 1680 nM (inactive)
- GI50 [39]: 733 nM (active)
- GI50 [40]: 202 nM (active)
- GI50 [41]: 1420 nM (inactive)
- GI50 [42]: 1610 nM (inactive)
- GI50 [43]: 1500 nM (inactive)
- GI50 [44]: 1330 nM (inactive)
- GI50 [45]: 2070 nM (inactive)
- GI50 [46]: 564 nM (active)
- GI50 [47]: 1270 nM (inactive)
- GI50 [48]: 256 nM (active)
- GI50 [49]: 324 nM (active)
- GI50 [50]: 1490 nM (inactive)
- GI50 [51]: 1620 nM (inactive)
- GI50 [52]: 188 nM (active)
- GI50 [53]: 1690 nM (inactive)
- GI50 [54]: 2770 nM (inactive)
- GI50 [55]: 1810 nM (inactive)
- GI50 [56]: 1690 nM (inactive)
- GI50 [57]: 1750 nM (inactive)
- GI50 [58]: 1690 nM (inactive)
